Assay results taken from PubChem BioAssay (NCI).
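48-hour exposure; five concentrations; linearly interpolated endpoints. GI50 marks 50% less growth. At the TGI there is no net growth.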

What was measured:
Test in all cases: growth of human tumour cells (NCI), 48 h
LOX IMVI melanoma = test system: LOX IMVI melanoma
OVCAR-4 ovarian = test system: OVCAR-4 ovarian
BT-549 breast = test system: BT-549 breast
SF-295 CNS = test system: SF-295 CNS
MDA-MB-435 = test system: MDA-MB-435
NCI-H226 lung = test system: NCI-H226 lung
CCRF-CEM leukemia = test system: CCRF-CEM leukemia
SK-OV-3 ovarian = test system: SK-OV-3 ovarian
M14 melanoma = test system: M14 melanoma
MOLT-4 leukemia = test system: MOLT-4 leukemia
HCC-2998 colon = test system: HCC-2998 colon
SK-MEL-2 melanoma = test system: SK-MEL-2 melanoma
HS 578T breast = test system: HS 578T breast
786-0 renal = test system: 786-0 renal
NCI-H23 lung = test system: NCI-H23 lung
HT29 colon = test system: HT29 colon
SR leukemia = test system: SR leukemia
MALME-3M melanoma = test system: MALME-3M melanoma
HCT-15 colon = test system: HCT-15 colon
SF-268 CNS = test system: SF-268 CNS
IGROV1 ovarian = test system: IGROV1 ovarian
SK-MEL-28 melanoma = test system: SK-MEL-28 melanoma
EKVX NSCLC = test system: EKVX NSCLC
T-47D breast = test system: T-47D breast
HCT-116 colon = test system: HCT-116 colon
OVCAR-5 ovarian = test system: OVCAR-5 ovarian
A549 NSCLC = test system: A549 NSCLC
U251 CNS = test system: U251 CNS
PC-3 prostate = test system: PC-3 prostate
SN12C renal = test system: SN12C renal
TK-10 renal = test system: TK-10 renal
DU-145 prostate = test system: DU-145 prostate
OVCAR-3 ovarian = test system: OVCAR-3 ovarian
A498 renal = test system: A498 renal
NCI-H522 lung = test system: NCI-H522 lung
COLO 205 colon = test system: COLO 205 colon
RPMI-8226 leukemia = test system: RPMI-8226 leukemia
SNB-75 CNS = test system: SNB-75 CNS
RXF 393 renal = test system: RXF 393 renal
HOP-62 NSCLC = test system: HOP-62 NSCLC
MCF7 breast = test system: MCF7 breast
SF-539 CNS = test system: SF-539 CNS
UACC-257 melanoma = test system: UACC-257 melanoma
NCI-H460 lung = test system: NCI-H460 lung
UACC-62 melanoma = test system: UACC-62 melanoma
MDA-MB-231 breast = test system: MDA-MB-231 breast
UO-31 renal = test system: UO-31 renal
K-562 leukemia = test system: K-562 leukemia
NCI/ADR-RES ovarian = test system: NCI/ADR-RES ovarian
KM12 colon = test system: KM12 colon
CAKI-1 renal = test system: CAKI-1 renal
HOP-92 NSCLC = test system: HOP-92 NSCLC
ACHN renal = test system: ACHN renal
HL-60(TB) leukemia = test system: HL-60(TB) leukemia
OVCAR-8 ovarian = test system: OVCAR-8 ovarian
SW-620 colon = test system: SW-620 colon
SK-MEL-5 melanoma = test system: SK-MEL-5 melanoma
SNB-19 CNS = test system: SNB-19 CNS

## Cc1ccc2sc3c(c2c1)OC(N)=C(C#N)C3c1cccc(F)c1 (stereo unspecified)
LOX IMVI melanoma
  GI50: 160 nM
  TGI: 2450 nM
OVCAR-4 ovarian
  GI50: 1340 nM
  TGI: 7480 nM
BT-549 breast
  GI50: 137 nM
  TGI: 1170 nM
SF-295 CNS
  GI50: 79.9 nM
  TGI: 770 nM
MDA-MB-435
  GI50: 24.1 nM
  TGI: 62 nM
NCI-H226 lung
  GI50: 282 nM
  TGI: 2810 nM
CCRF-CEM leukemia
  GI50: 312 nM
  TGI: 24700 nM
SK-OV-3 ovarian
  GI50: 324 nM
  TGI: 10700 nM
M14 melanoma
  GI50: 137 nM
  TGI: 1900 nM
MOLT-4 leukemia
  GI50: 414 nM
  TGI: 33600 nM
HCC-2998 colon
  GI50: 264 nM
  TGI: 1410 nM
SK-MEL-2 melanoma
  GI50: 308 nM
  TGI: 18700 nM
HS 578T breast
  GI50: 194 nM
  TGI: 8970 nM
786-0 renal
  GI50: 458 nM
  TGI: 6490 nM
NCI-H23 lung
  GI50: 205 nM
  TGI: 2560 nM
HT29 colon
  GI50: 250 nM
  TGI: 878 nM
SR leukemia
  GI50: 90 nM
  TGI: 30800 nM
MALME-3M melanoma
  GI50: 99.2 nM
  TGI: 11200 nM
HCT-15 colon
  GI50: 75.5 nM
  TGI: 6400 nM
SF-268 CNS
  GI50: 822 nM
  TGI: 24600 nM
IGROV1 ovarian
  GI50: 318 nM
  TGI: 12700 nM
SK-MEL-28 melanoma
  GI50: 825 nM
  TGI: 20100 nM
EKVX NSCLC
  GI50: 573 nM
  TGI: 18900 nM
T-47D breast
  GI50: 35.1 nM
  TGI: 26900 nM
HCT-116 colon
  GI50: 102 nM
  TGI: 1950 nM
OVCAR-5 ovarian
  GI50: 370 nM
  TGI: 7580 nM
A549 NSCLC
  GI50: 217 nM
  TGI: 11600 nM
U251 CNS
  GI50: 151 nM
  TGI: 1950 nM
PC-3 prostate
  GI50: 305 nM
  TGI: 14800 nM
SN12C renal
  GI50: 411 nM
  TGI: 6170 nM
TK-10 renal
  GI50: 1580 nM
  TGI: 13500 nM
DU-145 prostate
  GI50: 541 nM
  TGI: > 33200 nM
OVCAR-3 ovarian
  GI50: 134 nM
  TGI: 4100 nM
A498 renal
  GI50: 3350 nM
  TGI: 17200 nM
NCI-H522 lung
  GI50: 22.8 nM
  TGI: 94.6 nM
COLO 205 colon
  GI50: 276 nM
  TGI: 779 nM
RPMI-8226 leukemia
  GI50: 324 nM
  TGI: 9770 nM
SNB-75 CNS
  GI50: 158 nM
  TGI: 1360 nM
RXF 393 renal
  GI50: 36.5 nM
  TGI: 189 nM
HOP-62 NSCLC
  GI50: 265 nM
  TGI: 3970 nM
MCF7 breast
  GI50: 30 nM
  TGI: 11700 nM
SF-539 CNS
  GI50: 155 nM
  TGI: 547 nM
UACC-257 melanoma
  GI50: 162 nM
  TGI: 23300 nM
NCI-H460 lung
  GI50: 52.1 nM
  TGI: 1370 nM
UACC-62 melanoma
  GI50: 53.5 nM
  TGI: 12500 nM
MDA-MB-231 breast
  GI50: 457 nM
  TGI: 3170 nM
UO-31 renal
  GI50: 375 nM
  TGI: 11100 nM
K-562 leukemia
  GI50: 42.6 nM
  TGI: > 40800 nM
NCI/ADR-RES ovarian
  GI50: 57.4 nM
  TGI: 1760 nM
KM12 colon
  GI50: 309 nM
  TGI: 16900 nM
CAKI-1 renal
  GI50: 183 nM
  TGI: 11500 nM
HOP-92 NSCLC
  GI50: 4320 nM
  TGI: 20500 nM
ACHN renal
  GI50: 450 nM
  TGI: 10700 nM
HL-60(TB) leukemia
  GI50: 235 nM
  TGI: 671 nM
OVCAR-8 ovarian
  GI50: 257 nM
  TGI: 1250 nM
SW-620 colon
  GI50: 111 nM
  TGI: 13400 nM
SK-MEL-5 melanoma
  GI50: 391 nM
  TGI: 2350 nM
SNB-19 CNS
  GI50: 339 nM
  TGI: 13000 nM
